Laboratory results as given in patent US12729186B2, “Prodrugs for sustained releasing therapeutic agents and uses thereof” (LIANGJIANG MEDICINE CO., LTD., priority 2020, dated 2026).

Assay: Drug release assay (hydrolysis rate test in pH 7.4 / pH 2.0 buffer, HPLC)
Format: physicochemical
Details: for Hydrolysis constant Kh pH 2.0 / Hydrolysis constant Kh pH 7.4: Kh=-ln[100%-Release rate (%)]/t; for Release rate (%) pH 2.0 (6 h): pH 2.0 buffer solution; for Release rate (%) pH 2.0 (6 h) / Release rate (%) pH 7.4 (0.5 h) / Release rate (%) pH 7.4 (6 h): 37° C., 200 rpm, residual content relative to 0 h by HPLC; for Release rate (%) pH 7.4 (0.5 h) / Release rate (%) pH 7.4 (6 h): pH 7.4 buffer solution
Procedure: Preparation of pH2.0 Buffer Solution
Preparation of pH7.4 Buffer Solution
Method of Hydrolysis Rate Test
The compounds were dissolved in pH7.4/pH2.0 buffer solution, placed in a constant temperature shaker at 37° C. and 200 rpm, and sampled at 0 h, 0.5 h and 6 h respectively. The residual contents of the compounds relative to 0 h were tested at each time point.
The release rates (%) were calculated using the following equation: Release rate (%)=[A(0h)−A(xh)]/A(0h)×100%, (x=0, 0.5, 6), A(xh) is the peak area of compounds tested by HPLC at the indicated time point.
The hydrolysis constants (Kh) were calculated using the following equation: Hydrolysis constant Kh=−ln[100%−Release rate (%)]/t Results

Structure (SMILES) | Hydrolysis constant Kh pH 2.0 | Release rate (%) pH 2.0 (6 h) [%] | Hydrolysis constant Kh pH 7.4 | Release rate (%) pH 7.4 (0.5 h) [%] | Release rate (%) pH 7.4 (6 h) [%]
CC[C@@]1(O)C(=O)OCc2c1cc1n(c2=O)Cc2cc3cc(OC(=O)OCC4CCCN4C(c4ccccc4)c4ccccc4)ccc3nc2-1 (stereo partly drawn) [Example 20, (1-Benzhydrylpyrrolidin-2-yl)methyl ((S)-4-ethyl-4-hydroxy-3,14-dioxo-3,4,12,14-tetrahydro-1H-pyrano[3′,4′:6,7]indolizino[1,2-b]quinolin-9-yl) carbonate] | 0.078 | 37.2 | >20 | 100 | 100
CCCc1ccc(N2CCC(Cc3ccc(OC(=O)OCn4cc(F)c(=O)[nH]c4=O)cc3)CC2)cc1 [Example 6, (5-Fluoro-2,4-dioxo-3,4-dihydropyrimidin-1(2H)-yl)methyl (4-((1-(4-propylphenyl)piperidin-4-yl)methyl)phenyl) carbonate] | 0.033 | 18 | 3.521 | 82.8 | 75
